Experimental findings from ChEMBL document CHEMBL5352416, “Benzo[b]thiophene-2-carboxamides as novel opioid receptor agonists with potent analgesic effect and reduced constipation” (Eur J Med Chem, 2022) are described below.

Assay [1] has as its target T1, Mu-type opioid receptor (Homo sapiens, UniProt P35372). Kind of assay: Agonist activity at human mu opioid receptor expressed in CHO-K1 cells coexpressing Galpha15 assessed as increase in fluorescence of [ca2+]i measured for 1.52 sec by FLIPR calcium assay. Type of assay: functional, cell-based.
Assay [2] addresses T1, Mu-type opioid receptor. As to the kind of experiment: Agonist activity at human mu opioid receptor expressed in CHO-K1 cells coexpressing Galpha15 assessed as increase in fluorescence of [ca2+]i by measuring maximum efficacy measured for 1.52 sec by FLIPR calcium assay relative to control. Type of assay: functional, cell-based. The following applies: filed as agonist.
The subject of assay [3] is Mus musculus. Kind of assay: Antinociceptive activity in thermal stimulated C57BL/6 mouse assessed as tail flick latency at 4.4 mg/kg, sc measured at 30 to 60 mins by tail flick test. To be noted: time 30-60 min. The class given is functional, organism-based. On the technique in general: In hot-plate and tail-flick tests a longer latency is read as antinociception.
For assay [4], the system named is Mus musculus. As to the kind of experiment: Antinociceptive activity in CFA-induced mechanical allodynia C57BL/6 mouse model at 4.4 mg/kg, sc administered twice daily pretreated with CFA for 2 days followed by compound addition and measured at 3 to 7 days by von frey test. Type of assay: functional, organism-based. The following applies: time 3-7 day.
The subject of assay [5] is Mus musculus. Kind of assay: Induction of motivational effect in C57BL/6 mouse assessed as increase in reward behaviour at 2.5 mg/kg, sc administered for 4 days and measured on day 6 by CPP analysis. The class given is functional, organism-based. The following applies: time 6.0 day.
Assay [6] concerns Mus musculus. Kind of assay: Antinociceptive activity in thermal stimulated C57BL/6 mouse assessed as drug tolerance at 126.4 to 252.8 microg/kg, sc administered twice per day for 5 days and measured immediately by tail flick test. The class given is functional, organism-based. To be noted: dose 126.4-252.8 µg/kg, time 5.0 day.
For assay [7], the system named is Mus musculus. Kind of assay: Antinociceptive activity in thermal stimulated C57BL/6 mouse at 4.4 mg/kg, sc measured at 30 to 180 mins by tail flick test. Type of assay: functional, organism-based. The following applies: time 30-180 min.

Active and inactive are the calls of the source. The rule behind the calls is not given here.

As usually defined, the EC50 is the concentration at which the effect is half-maximal. As usually defined, the Emax is the greatest response seen or fitted, relative to the assay's reference.

T1 sequence (P35372 whole entry): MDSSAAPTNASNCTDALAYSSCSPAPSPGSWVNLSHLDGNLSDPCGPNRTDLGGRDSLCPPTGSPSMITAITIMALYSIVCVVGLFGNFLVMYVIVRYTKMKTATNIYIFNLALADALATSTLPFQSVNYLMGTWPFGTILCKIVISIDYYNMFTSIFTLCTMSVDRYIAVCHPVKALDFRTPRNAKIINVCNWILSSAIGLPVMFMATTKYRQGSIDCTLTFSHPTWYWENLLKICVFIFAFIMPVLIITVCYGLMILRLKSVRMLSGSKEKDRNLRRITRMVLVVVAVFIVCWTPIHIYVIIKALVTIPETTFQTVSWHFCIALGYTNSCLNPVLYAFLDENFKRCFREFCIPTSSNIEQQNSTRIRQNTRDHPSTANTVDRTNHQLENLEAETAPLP

On to `CN(C)C(CNC(=O)c1sc2ccccc2c1Cl)c1ccccc1Cl` (stereo not given), for which the half-maximal effective concentration (EC50) in assay [1] was 360 nM. Besides, in assay [2], the Emax was determined as 93.8%.
On the same counts, the results for `CN(C)C(CNC(=O)c1cc2ccccc2s1)c1ccccc1Cl` (stereo not given) are 3.04 nM and 66.7%.
For `CN(C)C(CNC(=O)c1cc2ccccc2s1)C1CCCCC1` (stereo not given) the same measures were 11100 nM and 91%.
Regarding `CN(C)C(CNC(=O)c1cc2ccccc2s1)c1ccc(F)cc1` (stereo not given), the concentration for a half-maximal effect (EC50) in assay [1] stood at 6.4 nM. In assay [2], the Emax came to 117%.
For `CN(C)C(CNC(=O)c1sccc1Cl)c1ccccc1Cl` (stereo not given) the same measures were 1060 nM and 50.7%.
Turning to `CN1CC[C@]23c4c5ccc(O)c4O[C@H]2[C@@H](O)C=C[C@H]3[C@H]1C5`, the result in assay [3], in assay [5], in assay [6] and in assay [7] was Active. Besides, in assay [4], the outcome was inactive.
In the case of `CN(C)C(CNC(=O)c1cc2ccccc2s1)c1cccc(Cl)c1` (stereo not given), in assay [1], the EC50 amounted to 2310 nM. In assay [2], the Emax turned out to be 130%.
In the case of `Cc1cccc(C(CNC(=O)c2cc3ccccc3s2)N(C)C)c1` (stereo not given), in assay [1], the EC50 stood at 4110 nM. For the same molecule, the maximal effect (Emax) in assay [2] is 116%.
On the same counts, the results for `CN1CCc2ccccc2C1CNC(=O)c1ccc(Cl)c(Cl)c1` (stereo not given) are 0.276 nM and 100%.
On the same counts, the results for `CN(C)C(CNC(=O)c1cc2ccccc2s1)c1ccccc1F` (stereo not given) are 1240 nM and 105%.
On the same counts, the results for `Cc1ccc2cc(C(=O)NCC(c3ccccc3Cl)N(C)C)sc2c1` (stereo not given) are 1890 nM and 58.4%.
